# Tests used:
# subjects with d-IBS = assay: Adequate relief of IBS symptoms and bloating (weekly yes/no questions), rifaximin BID study in d-IBS; assay type: in vivo, human; conditions: for Percentage of Subjects with Number of Weeks with Adequate Relief of Bloating Symptoms / Percentage of Subjects with Number of Weeks with Adequate Relief of IBS Symptoms: ITT; for Adequate Relief of Bloating: Success / Adequate Relief of IBS symptoms: Success: end of the Treatment Phase; for Percentage of Subjects with Adequate Relief of Bloating Symptom / Percentage of Subjects with Adequate Relief of IBS Symptoms: RFX 550 mg BID 14 days, ITT N = 191; for Percentage of Subjects with Adequate Relief of Bloating Symptom: at least two of the final three weeks of treatment phase; for Percentage of Subjects with Adequate Relief of IBS Symptoms: at least two of the final three weeks of treatment phase (Weeks 1 to 4); for Adequate Relief of Bloating, Post Treatment: Failures / Adequate Relief of Bloating, Post Treatment: Success / Adequate Relief of Bloating, Post Treatment: Failure: RFX 550 2w (N = 54); for Patients with adequate relief of bloating / Patients with adequate relief of global IBS symptoms: rifaximin 550 mg twice daily 14 days
# Protocol: This example relates to a study of rifaximin in subjects with d-IBS. […] There were two measures of efficacy assessed. Subjects were questioned on the relief of overall IBS symptoms and bloating. […] The analyses defined success as a “yes” response to questions regarding adequate relief.
# All subpopulations in the study responded to therapy. Baseline severity was determined using 7-point Lickert scales during screening for Abdominal Pain/Discomfort and Bloating, and the number, type (normal, hard, loose) and urgency of bowel movements.
# Duration of effect was assessed in a follow-up period. Subjects that responded in the 4 week treatment period were followed for an additional 3 months.
# The effect of treatment on the percentage of subjects who reported adequate relief of IBS and bloating symptoms for at least two of the final three weeks during the treatment phase (Weeks 1 to 4) is shown in Tables 5-7 and FIGS. 4-6 below.
# The study assessed the effect over 12 weeks of follow-up on long-term adequate relief. Subjects who had adequate relief by Week 4 and remained symptom-free at Week 5 were followed during the post-treatment phase and shown in FIGS. 1 and 2. Superiority to placebo was maintained during the 12 weeks post-treatment follow-up. Results for IBS symptoms were RFX 550 mg BID 62.3% versus placebo 49.2%, and RFX 550 mg BID 59.3% versus 50.9% for placebo for the symptom of bloating through week 16. In assessing the follow-up data, there was statistical significance (p<0.05) of bloating and IBS symptoms for RFX 550 mg BID versus placebo.
# Two measures of efficacy were assessed independently. The first was the proportion of subjects who provided a ‘yes’ response to the weekly SGA question: “In the past 7 days, have you had adequate relief of your IBS symptoms? (yes/no)”. The second endpoint was the proportion of subjects who provide a ‘yes’ response to the weekly individual symptom question: “In the past 7 days, have you had adequate relief of your symptom of bloating? (yes/no)”. Durability was based on the proportion of subjects that had adequate relief over the entire treatment phase.
# It is reported herein that the severity of baseline symptoms of abdominal pain and bloating influenced the response to rifaximin treatment. The co-primary endpoints in this analysis assessed weekly yes/no responses to questions regarding adequate relief of global IBS symptoms and IBS-associated bloating. Severity of baseline IBS symptoms was evaluated as a potential confounder of clinical response and was categorized as mild/moderate or severe based on a mean score of ≦4 vs. >4 (on a 7-point scale) for bloating and abdominal pain.
# The Weekly yes/no responses to questions regarding adequate relief of global IBS symptoms and IBS-associated bloating were assessed. Clinical response was defined as adequate relief for 2 of the final 3 treatment weeks (wk 2, 3, or 4). Severity of baseline IBS symptoms was evaluated as a potential confounder of clinical response and was categorized as mild/moderate or severe based on a mean score of ≦4 versus >4 (on a 7-point scale (0=not bothersome; 6=very bothersome)) for bloating and abdominal pain.
# [1] = test system: patients with diarrhea-predominant IBS; assay: Tolerability, adverse events, rifaximin 550 mg BID study; assay type: in vivo, human; conditions: rifaximin 550 mg BID 14 days
# [2] = patients with mild/moderate abdominal pain at baseline
# [3] = patients with mild/moderate bloating at baseline
structure (smiles),measurement,setting,value
"CO[C@H]1/C=C/O[C@@]2(C)Oc3c(C)c(O)c4c(O)c(c5c(nc6cc(C)ccn65)c4c3C2=O)NC(=O)/C(C)=C\C=C\[C@H](C)[C@H](O)[C@@H](C)[C@@H](O)[C@@H](C)[C@H](OC(C)=O)[C@@H]1C [Rifaximin, (2S,16Z,18E,20S,21S,22R, 23R,24R,25S,26S,27S,28E)-5,6,21,23,25 Pentahydroxy-27-methoxy-2,4,11,16,20,22,24,26-octamethyl-2,7-(epoxypentadeca-(1,11,13)trienimino) benzofuro (4,5-e) pyrido(1,2,-a) benzimidazole-1,15(2H)-dione,25-acetate]",Percentage of Subjects with Number of Weeks with Adequate Relief of Bloating Symptoms,"subjects with d-IBS; 0 weeks, RFX 550 mg BID",35%
same,Percentage of Subjects with Number of Weeks with Adequate Relief of IBS Symptoms,"subjects with d-IBS; 0 weeks, RFX 550 mg BID",33%
same,Percentage of Subjects with Number of Weeks with Adequate Relief of Bloating Symptoms,"subjects with d-IBS; 1 week, RFX 550 mg BID",14%
same,Percentage of Subjects with Number of Weeks with Adequate Relief of IBS Symptoms,"subjects with d-IBS; 1 week, RFX 550 mg BID",11%
same,Percentage of Subjects with Number of Weeks with Adequate Relief of Bloating Symptoms,"subjects with d-IBS; 2 weeks, RFX 550 mg BID",15%
same,Percentage of Subjects with Number of Weeks with Adequate Relief of IBS Symptoms,"subjects with d-IBS; 2 weeks, RFX 550 mg BID",15%
same,Percentage of Subjects with Number of Weeks with Adequate Relief of Bloating Symptoms,"subjects with d-IBS; 3 weeks, RFX 550 mg BID",20%
same,Percentage of Subjects with Number of Weeks with Adequate Relief of IBS Symptoms,"subjects with d-IBS; 3 weeks, RFX 550 mg BID",23%
same,Percentage of Subjects with Number of Weeks with Adequate Relief of Bloating Symptoms,"subjects with d-IBS; 4 weeks, RFX 550 mg BID",14%
same,Percentage of Subjects with Number of Weeks with Adequate Relief of IBS Symptoms,"subjects with d-IBS; 4 weeks, RFX 550 mg BID",16%
same,"Treatment effect, Bloating",subjects with d-IBS; Age <65,6.8%
same,"Treatment effect, IBS Sx",subjects with d-IBS; Age <65,6.9%
same,"Treatment effect, Bloating",subjects with d-IBS; Age ≧65,3.2%
same,"Treatment effect, IBS Sx",subjects with d-IBS; Age ≧65,19.1%
same,"Treatment effect, Bloating",subjects with d-IBS; Diabetes History N,7.4%
same,"Treatment effect, IBS Sx",subjects with d-IBS; Diabetes History N,9.5%
same,"Treatment effect, Bloating",subjects with d-IBS; Diabetes History Y,−5.6%
same,"Treatment effect, IBS Sx",subjects with d-IBS; Diabetes History Y,−12.7%
same,"Treatment effect, Bloating",subjects with d-IBS; Disease Duration 10-20 y,11.7%
same,"Treatment effect, IBS Sx",subjects with d-IBS; Disease Duration 10-20 y,20.1%
same,"Treatment effect, Bloating",subjects with d-IBS; Disease Duration >20 y,35.1%
same,"Treatment effect, IBS Sx",subjects with d-IBS; Disease Duration >20 y,46.6%
same,"Treatment effect, Bloating",subjects with d-IBS; Disease Duration ≦10 y,2.8%
same,"Treatment effect, IBS Sx",subjects with d-IBS; Disease Duration ≦10 y,1.8%
same,Adequate Relief of Bloating: Failure,"subjects with d-IBS; Female, RFX 275 2w",52 (64.2%)
same,Adequate Relief of IBS symptoms: Failure,"subjects with d-IBS; Female, RFX 275 2w",46 (56.8%)
same,Adequate Relief of Bloating: Success,"subjects with d-IBS; Female, RFX 275 2w",29 (35.8%)
same,Adequate Relief of IBS symptoms: Success,"subjects with d-IBS; Female, RFX 275 2w",35 (43.2%)
same,Adequate Relief of Bloating: Failure,"subjects with d-IBS; Female, RFX 550 2w",74 (54.0%)
same,Adequate Relief of IBS symptoms: Failure,"subjects with d-IBS; Female, RFX 550 2w",66 (48.2%)
same,Adequate Relief of Bloating: Success,"subjects with d-IBS; Female, RFX 550 2w",63 (46.0%)
same,Adequate Relief of IBS symptoms: Success,"subjects with d-IBS; Female, RFX 550 2w",71 (51.8%)
same,Adequate Relief of Bloating: Failure,"subjects with d-IBS; Female, RFX 550 4w",44 (57.9%)
same,Adequate Relief of IBS symptoms: Failure,"subjects with d-IBS; Female, RFX 550 4w",42 (55.3%)
same,Adequate Relief of Bloating: Success,"subjects with d-IBS; Female, RFX 550 4w",32 (42.1%)
same,Adequate Relief of IBS symptoms: Success,"subjects with d-IBS; Female, RFX 550 4w",34 (44.7%)
same,Adequate Relief of Bloating: Failure,"subjects with d-IBS; Female, RFX 1100 2w",45 (61.6%)
same,Adequate Relief of IBS symptoms: Failure,"subjects with d-IBS; Female, RFX 1100 2w",44 (60.3%)
same,Adequate Relief of Bloating: Success,"subjects with d-IBS; Female, RFX 1100 2w",28 (38.4%)
same,Adequate Relief of IBS symptoms: Success,"subjects with d-IBS; Female, RFX 1100 2w",29 (39.7%)
same,"Treatment effect, Bloating",subjects with d-IBS; Gender F,3.9%
same,"Treatment effect, IBS Sx",subjects with d-IBS; Gender F,3.5%
same,"Treatment effect, Bloating",subjects with d-IBS; Gender M,13.6%
same,"Treatment effect, IBS Sx",subjects with d-IBS; Gender M,21%
same,Adequate Relief of Bloating: Failure,"subjects with d-IBS; Male, RFX 275 2w",8 (57.1%)
same,Adequate Relief of IBS symptoms: Failure,"subjects with d-IBS; Male, RFX 275 2w",9 (64.3%)
same,Adequate Relief of Bloating: Success,"subjects with d-IBS; Male, RFX 275 2w",6 (42.9%)
same,Adequate Relief of IBS symptoms: Success,"subjects with d-IBS; Male, RFX 275 2w",5 (35.7%)
same,Adequate Relief of Bloating: Failure,"subjects with d-IBS; Male, RFX 550 2w",29 (53.7%)
same,Adequate Relief of IBS symptoms: Failure,"subjects with d-IBS; Male, RFX 550 2w",25 (46.3%)
same,Adequate Relief of Bloating: Success,"subjects with d-IBS; Male, RFX 550 2w",25 (46.3%)
same,Adequate Relief of IBS symptoms: Success,"subjects with d-IBS; Male, RFX 550 2w",29 (53.7%)
same,Adequate Relief of Bloating: Failure,"subjects with d-IBS; Male, RFX 550 4w",16 (72.7%)
same,Adequate Relief of IBS symptoms: Failure,"subjects with d-IBS; Male, RFX 550 4w",15 (68.2%)
same,Adequate Relief of Bloating: Success,"subjects with d-IBS; Male, RFX 550 4w",6 (27.3%)
same,Adequate Relief of IBS symptoms: Success,"subjects with d-IBS; Male, RFX 550 4w",7 (31.8%)
same,Adequate Relief of Bloating: Failure,"subjects with d-IBS; Male, RFX 1100 2w",16 (61.5%)
same,Adequate Relief of IBS symptoms: Failure,"subjects with d-IBS; Male, RFX 1100 2w",14 (53.8%)
same,Adequate Relief of Bloating: Success,"subjects with d-IBS; Male, RFX 1100 2w",10 (38.5%)
same,Adequate Relief of IBS symptoms: Success,"subjects with d-IBS; Male, RFX 1100 2w",12 (46.2%)
same,Percentage of Subjects with Adequate Relief of Bloating Symptom,subjects with d-IBS,46%
same,Percentage of Subjects with Adequate Relief of IBS Symptoms,subjects with d-IBS,52%
same,Percentage of Subjects with Adequate Relief of IBS Symptoms,subjects with d-IBS; listed as RFX,52.4%
same,Percentage of Subjects with Adequate Relief of Bloating Symptom,subjects with d-IBS; listed as RFX,46.1%
same,"Adequate Relief of Bloating, Post Treatment: Failures",subjects with d-IBS; Week 6,(9.3%)
same,"Adequate Relief of Bloating, Post Treatment: Success",subjects with d-IBS; Week 6,(90.7%)
same,"Adequate Relief of Bloating, Post Treatment: Failures",subjects with d-IBS; Week 7,(16.7%)
same,"Adequate Relief of Bloating, Post Treatment: Success",subjects with d-IBS; Week 7,(83.3%)
same,"Adequate Relief of Bloating, Post Treatment: Failures",subjects with d-IBS; Week 8,(13.0%)
same,"Adequate Relief of Bloating, Post Treatment: Success",subjects with d-IBS; Week 8,(87.0%)
same,"Adequate Relief of Bloating, Post Treatment: Failures",subjects with d-IBS; Week 9,(27.8%)
same,"Adequate Relief of Bloating, Post Treatment: Success",subjects with d-IBS; Week 9,(72.2%)
same,"Adequate Relief of Bloating, Post Treatment: Failures",subjects with d-IBS; Week 10,(27.8%)
same,"Adequate Relief of Bloating, Post Treatment: Success",subjects with d-IBS; Week 10,(72.2%)
same,"Adequate Relief of Bloating, Post Treatment: Failures",subjects with d-IBS; Week 11,(35.2%)
same,"Adequate Relief of Bloating, Post Treatment: Success",subjects with d-IBS; Week 11,(64.8%)
same,"Adequate Relief of Bloating, Post Treatment: Failure",subjects with d-IBS; Week 12,(33.3%)
same,"Adequate Relief of Bloating, Post Treatment: Success",subjects with d-IBS; Week 12,(66.7%)
same,"Adequate Relief of Bloating, Post Treatment: Failure",subjects with d-IBS; Week 13,(38.9%)
same,"Adequate Relief of Bloating, Post Treatment: Success",subjects with d-IBS; Week 13,(61.1%)
same,"Adequate Relief of Bloating, Post Treatment: Failure",subjects with d-IBS; Week 14,(37.0%)
same,"Adequate Relief of Bloating, Post Treatment: Success",subjects with d-IBS; Week 14,(63.0%)
same,"Adequate Relief of Bloating, Post Treatment: Failure",subjects with d-IBS; Week 15,(42.6%)
same,"Adequate Relief of Bloating, Post Treatment: Success",subjects with d-IBS; Week 15,(57.4%)
same,"Adequate Relief of Bloating, Post Treatment: Failure",subjects with d-IBS; Week 16,(40.7%)
same,"Treatment effect, IBS Sx",subjects with d-IBS; aIBS,"31.4%*, 31.4%"
same,"Treatment effect, Bloating",subjects with d-IBS; dIBS only,4.5%
same,"Treatment effect, IBS Sx",subjects with d-IBS; dIBS only,6.3%
same,Patients with adequate relief of bloating,subjects with d-IBS; [2],44%
same,Patients with adequate relief of global IBS symptoms,subjects with d-IBS; [2],50%
same,Patients with adequate relief of bloating,subjects with d-IBS; [3],47%
same,Patients with adequate relief of global IBS symptoms,subjects with d-IBS; [3],56%
same,"Long-term adequate relief of IBS symptoms, post-treatment follow-up","subjects with d-IBS; through week 16, RFX 550 mg BID, subjects with adequate relief by Week 4",62.3%
same,"Tolerability, incidence of adverse events compared with placebo",[1],well tolerated

# From patent US20130184302A1, “METHODS FOR TREATING IRRITABLE BOWEL SYNDROME (IBS) AND INFECTIONS” (priority 2011, published 2013)
